Experimental data taken from PubChem BioAssay (NCI).
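48-hour exposure; five concentrations; linearly interpolated endpoints. The concentration for 50% growth inhibition is given as GI50. The concentration for full growth arrest is given as TGI.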

Tests used:
Assay in all cases: inhibition of tumour cell growth, NCI panel, 48 h
T-47D breast = tested on: T-47D breast
NCI/ADR-RES ovarian = tested on: NCI/ADR-RES ovarian
MDA-MB-231 breast = tested on: MDA-MB-231 breast
MCF7 breast = tested on: MCF7 breast
PC-3 prostate = tested on: PC-3 prostate
DU-145 prostate = tested on: DU-145 prostate
HS 578T breast = tested on: HS 578T breast
786-0 renal = tested on: 786-0 renal
HOP-18 NSCLC = tested on: HOP-18 NSCLC
M19-MEL melanoma = tested on: M19-MEL melanoma
DMS 114 small cell lung = tested on: DMS 114 small cell lung
DMS 273 small cell lung = tested on: DMS 273 small cell lung
XF 498 CNS = tested on: XF 498 CNS
MDA-N = tested on: MDA-N

| SMILES | TGI (T-47D breast) [µM] | TGI (NCI/ADR-RES ovarian) [µM] | TGI (MDA-MB-231 breast) [µM] | TGI (MCF7 breast) [µM] | TGI (PC-3 prostate) [µM] | TGI (DU-145 prostate) [µM] | TGI (HS 578T breast) [µM] | TGI (786-0 renal) [µM] | TGI (HOP-18 NSCLC) [µM] | TGI (M19-MEL melanoma) [µM] | TGI (DMS 114 small cell lung) [µM] | TGI (DMS 273 small cell lung) [µM] | TGI (XF 498 CNS) [µM] | TGI (MDA-N) [µM] | GI50 (T-47D breast) [µM] | GI50 (NCI/ADR-RES ovarian) [µM] | GI50 (MDA-MB-231 breast) [µM] | GI50 (PC-3 prostate) [µM] | GI50 (DU-145 prostate) [µM] | GI50 (HS 578T breast) [µM] |
| --- | --- | --- | --- | --- | --- | --- | --- | --- | --- | --- | --- | --- | --- | --- | --- | --- | --- | --- | --- | --- |
| Cc1cc(N(CCCCl)CCCCl)ccc1C=Nc1cccc(Cl)c1 | 24.1 | 33.4 | 29.3 | 49.9 | 25.9 | 27.9 | 36.2 | 43.2 |  |  |  |  |  |  |  |  |  |  |  |  |
| C[n+]1ccc(-c2cc[n+](C)cc2)cc1 |  |  |  |  |  |  |  | > 100 | > 100 | > 21.6 | > 24.7 | > 38.5 | 17 |  |  |  |  |  |  |  |
| c1ccc2sc(SCN(C3CCCCC3)C3CCCCC3)nc2c1 | 49.5 | > 100 | > 100 |  | > 100 | > 100 | > 100 |  |  |  |  |  |  |  |  |  |  |  |  |  |
| Nc1ccc(Nc2c3ccccc3nc3ccccc23)cc1 | > 10 | > 10 | > 10 | > 10 | > 10 | > 10 | > 10 | > 10 |  |  |  |  |  | > 10 |  |  |  |  |  |  |
| Nc1nnc(N)n1NC(=O)C(=O)Nc1ccc([N+](=O)[O-])cc1 |  |  |  |  |  |  |  |  | > 100 | > 100 | > 100 | > 100 | > 100 |  |  |  |  |  |  |  |
| COc1cc2c(cc1Oc1ccc(OC)c3c1CC1c4c(cc(OC)c(OC)c4-3)CCN1C)CC1c3c(cc(OC)c(OC)c3-2)CCN1C (stereo unspecified) |  | 18.3 |  | 8.43 |  |  |  |  | 23.8 | 3.37 |  | 7.06 | 4.29 |  |  |  |  |  |  |  |
| Fc1ccc(-c2nnc3sc(COc4ccccc4Cl)nn23)cc1Cl | > 100 | > 100 | > 100 |  | > 100 | > 100 | 91.6 |  |  |  |  |  |  |  | 32.8 | 40.8 | 44.5 | 30.7 | 29.8 | 35.2 |
| O=C1c2ccccc2C(=O)c2c1ccc(C(=O)O)c2-c1ccc2ccccc2c1 | 18.1 | > 100 | 73.9 | 81.8 | 72.4 | 46.6 | 80.7 | > 100 |  |  |  |  |  | 79.2 |  |  |  |  |  |  |
| CCCCCCCCCCCCCCCCOCC(COP(=O)([O-])OCC[n+]1ccc(N(C)C)cc1)OCC (stereo unspecified) | 37.3 |  | 22.5 | 36.1 |  | 30.1 | 31.8 | 34.2 |  |  |  |  |  | 30.8 |  |  |  |  |  |  |
| COc1ccc(CC2c3cc(OC)c(OC)c(OC)c3CC[N+]2(C)C)cc1Oc1ccc(CC2c3cc4c(c(OC)c3CCN2C)OCO4)cc1 (stereo unspecified) | > 100 | > 100 | > 100 | > 100 | > 100 | > 100 | > 100 | > 100 |  |  |  |  |  | > 100 |  |  |  |  |  |  |
| Cc1cc(=O)oc2c1cc(OCC(=O)OCCN1CCCCC1)c1occ(C)c12 |  |  |  |  |  |  |  | > 100 | > 100 | > 100 | > 100 | > 100 | > 100 |  |  |  |  |  |  |  |
| COc1cc(O)c2c(c1)C(=O)c1cc(C)cc(O)c1C2=O |  |  |  |  |  |  |  |  | > 100 | > 100 | > 100 |  |  |  |  |  |  |  |  |  |
| COc1cc(C)c2c(=O)c3c(oc2c1)C(=O)c1c(O)c(OC)cc(O)c1C3=O |  | 2.62 |  | 9.34 |  |  |  |  | 3.9 | 4.04 | 1.72 | 1.8 | 2.29 |  |  |  |  |  |  |  |
| O=c1cc(O)c2ccccc2o1 | > 100 | > 100 | > 100 | > 100 | > 100 | > 100 | > 100 | > 100 |  |  |  |  |  | > 100 |  |  |  |  |  |  |
| CC(C)=CCC[C@](C)(O[C@@H]1O[C@H](CO)[C@@H](O)[C@H](O)[C@H]1O)[C@H]1CC[C@]2(C)[C@@H]1[C@H](O)C[C@@H]1[C@@]3(C)CC[C@H](O)C(C)(C)[C@@H]3[C@@H](O[C@@H]3O[C@H](CO)[C@@H](O)[C@H](O)[C@H]3O)C[C@]12C | > 100 |  | > 100 | > 100 | > 100 | > 100 | > 100 | > 100 |  |  |  |  |  | > 100 |  |  |  |  |  |  |
| Cn1c(Sc2ccc(-c3cccnc3)n2C)ccc1-c1cccnc1 | 44.2 | 71.3 | 37.1 | 45.3 | 31 | 33.5 | 9.76 | 43.5 |  |  |  |  |  | 25.3 |  |  |  |  |  |  |
| COc1c(Cl)cc(S(=O)O)cc1Cl |  |  |  |  |  |  |  |  |  | > 100 | > 100 |  | > 100 |  |  |  |  |  |  |  |
| NC(=O)Nc1cc(O)ccc1N=Nc1ccc(S(=O)(=O)Nc2ccccn2)cc1 |  |  |  |  |  |  |  |  | > 100 | > 100 | > 100 | > 100 | > 100 |  |  |  |  |  |  |  |
| CCOC(=O)NC | > 100 | > 100 | > 100 | > 100 | > 100 | > 100 | > 100 | > 100 |  |  |  |  |  | > 100 |  |  |  |  |  |  |
